The text below walks through data of patent US12590864B2, “Wind tunnel for assessment of insecticides” (EAST CAROLINA UNIVERSITY, priority 2023, dated 2026).

For one series, the system named is Cx. pipiens complex. Conditions: five field populations; cited from earlier work.
The next series concerns Aedes albopictus. In words: CDC bottle bioassay (AI residue). It is filed as in vivo. Conditions: 30 min DT, Ae. albopictus; for mortality at the DT: 8 μg/mL residue. How it is done:
(§1) Separate mosquitoes from the same populations used in wind tunnel experiments were also used in bottle bioassays, except for Ae. albopictus, F1, Craven County, NC that were used in wind tunnel but not bottle bioassays due to low sample size. Female mosquitoes (4-5 d old) were aspirated from colony cages, transferred to 500 mL glass Wheaton bottles (N=11-20 mosquitoes in each of three to four replicate bottles), and exposed constantly to technical grade permethrin AI residue (8 μg/mL) (Chem Service, Westchester, Pennsylvania) for a 120 min period using established CDC bottle bioassay methods and mortality was monitored/recorded at 0, 15, 30, 60, and 120 min (CDC 2013, 2019; Richards et al. 2017ab, 2019). Bottle bioassay control groups were transferred to clean bottles following the same established methods (CDC 2013, 2019; Richards et al. 2017ab, 2019). Diagnostic dose and diagnostic time (DT) were determined using susceptible populations of Ae. albopictus and Cx. quinquefasciatus (data not shown).
(§2) Female mosquitoes (4-5 d old) were aspirated from a separate colony cages, transferred to 500 mL glass Wheaton bottles, and exposed to AI residue using established CDC bottle bioassay methods and mortality was monitored/recorded at 15, 30, 60, and 120 min (FIG. 8). Bottle bioassay control groups were transferred to clean bottles following established methods (CDC 2013, 2019). At the 30 min DT for permethrin, Ae. albopictus, F48, Orleans Parish, Ae. albopictus, F0, New Hanover County, and Cx. pipiens quinquefasciatus, F219, Johannesburg were classified as susceptible (100% mortality at the DT); however, Cx. pipiens/quinquefasciatus, F1, New Hanover County (69% mortality) and Cx. pipiens/quinquefasciatus, F1, Pitt County County (57% mortality) were classified as resistant. FIG. 9 is a bar graph of the mortality of types of mosquitoes in the wind tunnel during bioassay exposure to permethrin.

The subject of series [1] is Culex pipiens/quinquefasciatus. In words: CDC bottle bioassay (AI residue). It counts as in vivo. As to conditions: 30 min DT; for mortality at the DT: 8 μg/mL residue. How it is done:
as §1, §2

Setting [2] is: Cx. pipiens quinquefasciatus, F219, Johannesburg.
[3] abbreviates: Cx. pipiens/quinquefasciatus, F1, New Hanover County.
[4] abbreviates: Cx. pipiens/quinquefasciatus, F1, Pitt County.

Usually mortality stands for the share of the test organisms that died. Read a high mortality as fewer survivors.

Take `CC(C)=CC1C(C(=O)OCc2cccc(Oc3ccccc3)c2)C1(C)C` (stereo not drawn) [Sumethrin®, d-phenothrin]: in the series on Cx. pipiens complex, the resistance classification result is on record as “resistant”.
Turning to `CC1(C)C(C=C(Cl)Cl)C1C(=O)OCc1cccc(Oc2ccccc2)c1` (centres unmarked) [permethrin], the “mortality at the DT” value in the series with Aedes albopictus (F0, New Hanover County) is 100%; in the series on Aedes albopictus (F48, Orleans Parish) it was 100%; in series [1] (setting [2]) it was 100%; in series [1] (setting [3]) it was 69%; in series [1] (setting [4]), 57%. The resistance classification entry is given as “susceptible” with Aedes albopictus (F0, New Hanover County); “susceptible” with Aedes albopictus (F48, Orleans Parish); “susceptible” in series [1] (setting [2]); “resistant” in series [1] (setting [3]); “resistant” in series [1] (setting [4]).
